Earlier results in US6126939A, “Anti-inflammatory dipeptide and pharmaceutical composition thereof” (Yeda Research and Development Co. Ltd., priority 1997, dated 2000).

Experiments:
macrophage migration = details: literature
blood sugar levels = details: rats, i.p. 100 mg/kg
[1] = in vitro test assay
IL-1 = details: literature

In the case of COc1ccc2c(C(=S)N(C)CC(=O)O)cccc2c1C(F)(F)F [Tolrestat], the macrophage migration (macrophage migration) is listed as “Another MIF”.
In the case of Arg-Asn, the “hypoglycemic activity (lowering of blood sugar levels)” value (blood sugar levels) is given as “having hypoglycemic activity” and the antilipolytic activity [1] is given as “no significant antilipolytic activity”.
For Arg-Asn-NH2, the “hypoglycemic activity (lowering of blood sugar levels)” value (blood sugar levels) is given as “having hypoglycemic activity” and the antilipolytic activity [1] is given as “have antilipolytic activity”.
For Asn-Arg-NH2, the “hypoglycemic activity (lowering of blood sugar levels)” value (blood sugar levels) is listed as “having hypoglycemic activity” and the antilipolytic activity [1] is listed as “have antilipolytic activity”.
For Gln-Arg-NH2, the “hypoglycemic activity (lowering of blood sugar levels)” value (blood sugar levels) is listed as “having hypoglycemic activity” and the antilipolytic activity [1] is listed as “have antilipolytic activity”.
In the case of Gln-Arg-OMe, the “hypoglycemic activity (lowering of blood sugar levels)” value (blood sugar levels) is given as “having hypoglycemic activity” and the antilipolytic activity [1] is given as “no significant antilipolytic activity”.
In the case of Glu-Arg-NH2, the “hypoglycemic activity (lowering of blood sugar levels)” value (blood sugar levels) is listed as “did not significantly lower blood sugar levels” and the antilipolytic activity [1] is listed as “have antilipolytic activity”.
For Glu-Arg-OMe, the “hypoglycemic activity (lowering of blood sugar levels)” value (blood sugar levels) is given as “having hypoglycemic activity” and the antilipolytic activity [1] is given as “have antilipolytic activity”.
In the case of Thr-Lys-Pro [TKP], the macrophage migration (macrophage migration) is given as “inhibit macrophage migration” and the “secretion of IL-1 macrophages” value (IL-1) is given as “reduce secretion of IL-1”.
